Measured values as given in ChEMBL document CHEMBL1139116, “Discovery and SAR of isonicotinamide BACE-1 inhibitors that bind beta-secretase in a N-terminal 10s-loop down conformation” (Bioorg Med Chem Lett, 2007).

Assay: Partition coefficient, log P of the compound
Assay type: physicochemical
Settings: octanol/water

Row | logP | Compound
1 | > 3.5 | CC1CC1CNc1cc(C(=O)N[C@@H](Cc2ccccc2)[C@@H](N)CCC(F)(F)F)cc(N(C)S(C)(=O)=O)n1 (mixture of isomers)
2 | > 2.51 | CCCC[C@H](N)[C@H](Cc1ccccc1)NC(=O)c1cc(NCC2CC2C)nc(N(C)S(C)(=O)=O)c1 (mixture of isomers)
